pEC50: −log10 of the molar value. Read-outs that look alike come from different tables or passages of the source.
Key:
GPR132 = target: T1, GPR132 (Homo sapiens, UniProt Q9UNW8); test: G protein activation (Gi BRET probes, GPR132 co-transfected in HEK293 cells); format: cell-based; details: stimulated 2 minutes, read-out: GPR132 EC50 (GPR132 agonist activity)
T1 construct: expressed in transfected cells; host or cells: HEK293 cells (transient co-transfection)
T1 sequence (Q9UNW8 1-380): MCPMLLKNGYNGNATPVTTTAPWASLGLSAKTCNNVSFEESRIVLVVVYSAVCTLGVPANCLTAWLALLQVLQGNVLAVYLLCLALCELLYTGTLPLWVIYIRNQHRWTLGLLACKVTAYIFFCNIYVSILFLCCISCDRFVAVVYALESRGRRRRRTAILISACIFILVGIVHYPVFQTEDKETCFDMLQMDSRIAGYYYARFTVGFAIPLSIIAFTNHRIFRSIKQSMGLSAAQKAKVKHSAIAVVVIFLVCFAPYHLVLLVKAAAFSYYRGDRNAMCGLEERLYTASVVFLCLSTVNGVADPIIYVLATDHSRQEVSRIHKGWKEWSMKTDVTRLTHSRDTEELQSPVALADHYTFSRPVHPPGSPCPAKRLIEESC
Description: Gi BRET probes were generated according to previous literature (Olsen et al., 2020), and included Gαi-RLuc8, Gβ3, and Gγ9-GFP2. GPR132 and Gi BRET probes were transiently co-transfected in HEK293 cells. 24 hours after transfection, the cells were distributed into 96-well microplates at a density of 5×10^4 cells per well and cultured for another 24 hours. The cells were washed twice with Tyrode buffer and stimulated with compound ligands at different concentrations (10^−12 to 10^−5 M) for 2 minutes. After adding coelenterazine, the substrate of luciferase, 400a (5 μM), BRET signal was measured using a Mithras LB940 microplate reader equipped with a BRET filter set. The BRET signal was calculated as the emission light ratio at 510 nm/400 nm.
The compounds with lower EC50 values in the above experiments had good GPR132 agonist activity.

TNF-α = test: Determination of level of tumor necrosis factor (TNF-α) as cell inflammatory marker, ELISA, LPS-treated HepG2 cells; format: cell-based; details: Homo sapiens, 48 h of drug administration, read-out: EC50 (activity in reducing TNF-α)
Description: HepG2 cells were inoculated in 96-well plates at a density of 30%. After incubation for 18 h to allow the cells to adhere to wall, the original culture medium was removed, and each well of the drug group was added with LPS culture medium (LPS concentration was […]), the control group was added with an equal amount of DMSO, and incubation was performed overnight. […] Three replicate wells were set for each compound. After 48 h of drug administration, the cell supernatant was collected with a sterile tube, and centrifuged for about 20 minutes (2000 to 3000 rpm). The supernatant was carefully collected. The TNF-α level was then determined using ELISA method. The specific steps were as follows: • Standard sample addition: Standard sample wells and sample wells were set, and 50 μL of standard sample at different concentrations was added to each standard sample well. • Sample addition: Blank wells (blank control wells was not added with sample and ELISA reagent, and the rest operations were the same) and test sample wells were set. First, 40 μL of sample diluent was added to each test sample well on an ELISA plate, and then 10 μL of the sample to be tested (the final dilution ratio of sample was 5) was added. The sample was added to the bottom of the well of the ELISA plate, not touching the well wall as much as possible, and then the gentle shaking was carried out for mixing. • Enzyme addition: 100 μL of ELISA reagent was added to each well, except for the blank wells. • Incubation: The plate was sealed with a sealing film and incubated at 37° C. for 60 minutes. • Solution preparation: 20-Fold concentrated washing solution was diluted by 20-fold with distilled water for later use. • Washing: The sealing film was carefully peeled off, the liquid was discarded, the plate was spin-dried; each well was filled with the washing solution, allowed to stand for 30 seconds and then the washing solution was discarded. This operation was repeated 5 times, and pat-drying was performed. • Color development: First, 50 μL of color developer A was added to each well, then 50 μL of color developer B was added, gently shaken and mixed, and color development was performed at 37° C. in the dark for 15 minutes. • Termination: 50 μL of termination liquid was added to each well to stop the reaction (the blue color immediately turned yellow). • Determination: Zero was set with the blank well, and the absorbance (OD value) at 450 nm of each well was measured in sequence. The determination should be performed within 15 minutes after adding the termination liquid.
TNF-α content in the sample to be tested could be calculated by drawing a standard curve based on the standard samples. TNF-α reduction rate was further calculated. The formula for calculating TNF-α reduction was Reduction rate (%)=TNF-α contentcontrol−TNF-α contentto be tested/TNF-α contentcontrol×100.
In the above experiment, the compounds with higher TNF-α reduction rate and lower EC50 value could better reduce the level of inflammation.

Compound | pEC50 (GPR132) | pEC50 (TNF-α) | pEC50 (GPR132; class symbols) | pEC50 (TNF-α; class symbols)
Cc1c(C(=O)O)oc2ccc(NC(=O)CCc3ccccc3)cc12 [Example 16] | 5.19 | 4.99 |  | 
Cc1c(C(=O)O)oc2ccc(NC(=O)/C=C/c3ccccc3)cc12 [Example 17] |  |  | 6.00 to 8.00 | 5.00 to 8.00
Cc1c(C(=O)O)oc2ccc(NC(=O)/C=C/c3cccc(I)c3)cc12 [Example 18, (E)-5-(3-(3-IODOPHENYL)ACRYLAMIDO)-3-METHYLBENZOFURAN-2-CARBOXYLIC ACID] | 6.29 | 6.00 |  | 
Cc1c(C(=O)O)oc2ccc(NC(=O)[C@H]3C[C@H]3c3ccccc3)cc12 [Example 19, 3-METHYL-5-((1S,2R)-2-PHENYLCYCLOPROPANE-1-CARBOXAMIDO) BENZOFURAN-2-CARBOXYLIC ACID] |  |  | 5.00 to 6.00 | 4.30 to 5.00
Cc1c(C(=O)O)oc2ccc(NC(=O)CCC(=O)c3ccccc3)cc12 [Example 20] |  |  | 6.00 to 8.00 | 5.00 to 8.00
Cc1c(C(=O)O)oc2ccc(NC(=O)CCCCc3ccccc3)cc12 [Example 21, 3-METHYL-5-(5-PHENYLVALERAMIDO)BENZOFURAN-2-CARBOXYLIC ACID] |  |  | 5.00 to 6.00 | 5.00 to 8.00
Cc1c(C(=O)O)oc2ccc(OCCCc3ccccc3)cc12 [Example 22, 3-METHYL-5-(3-PHENYLPROPOXY)BENZOFURAN-2-CARBOXYLIC ACID] |  |  | 6.00 to 8.00 | 5.00 to 8.00
Cc1c(C(=O)O)oc2ccc(S(=O)(=O)N(CCc3ccccc3)Cc3ccccc3)cc12 [Example 23, 3-METHYL-5-(N-BENZYL-N-PHENYLETHYLSULFAMOYL)BENZOFURAN-2-CARBOXYLIC ACID] | 5.42 | 5.23 |  | 
Cc1c(C(=O)O)oc2ccc(S(=O)(=O)N(CCc3ccccc3)Cc3ccc(Br)cc3)cc12 [Example 24, 3-METHYL-5-(N-(4-BROMOBENZYL)-N-PHENYLETHYLSULFAMOYL)BENZOFURAN-2-CARBOXYLIC ACID] | 6.52 | 6.15 |  | 
Cc1c(C(=O)O)oc2ccc(S(=O)(=O)N(CCc3ccccc3)Cc3ccc(C(=O)OC(C)(C)C)cc3)cc12 [Example 25, 3-METHYL-5-(N-(4-(TERT-BUTYLOXYCARBONYL)BENZYL)-N-PHENYLETHYLSULFAMOYL) BENZOFURAN-2-CARBOXYLIC ACID] |  |  | 6.00 to 8.00 | 5.00 to 8.00
Cc1c(C(=O)O)oc2ccc(S(=O)(=O)N(CCc3ccccc3)Cc3cccc4cccnc34)cc12 [Example 26, 3-METHYL-5-(N-(QUINOLIN-8-YLMETHYL)-N-PHENYLETHYLSULFAMOYL)BENZOFURAN-2-CARBOXYLIC ACID] |  |  | 5.00 to 6.00 | 4.30 to 5.00
Cc1c(C(=O)O)oc2ccc(S(=O)(=O)N(CCc3ccccc3)c3ccccc3)cc12 [Example 27, 3-METHYL-5-(N-PHENETHYL-N-PHENYLSULFAMOYL)BENZOFURAN-2-CARBOXYLIC ACID] |  |  | 5.00 to 6.00 | 4.30 to 5.00
Cc1c(C(=O)O)oc2ccc(S(=O)(=O)N(CCc3ccccc3)CCc3ccccc3)cc12 [Example 28, 3-Methyl-5-(N,N-diphenylethylsulfamoyl)benzofuran-2-carboxylic acid] | 5.68 | 5.51 |  | 
Cc1c(C(=O)O)oc2ccc(S(=O)(=O)N(CCc3ccccc3)c3ccc(N4CCN(S(C)(=O)=O)CC4)cc3)cc12 [Example 29, 3-METHYL-5-(N-(4-(4-(METHYLSULFONYL)PIPERAZIN-1-YL)PHENYL)-N-PHENYLETHYLSULFAMOYL)BENZOFURAN-2-CARBOXYLIC ACID] |  |  | 5.00 to 6.00 | 4.30 to 5.00
Cc1c(C(=O)O)oc2ccc(S(=O)(=O)N(CCc3ccccc3)c3ccc(Oc4ccccc4)cc3)cc12 [Example 30, 3-METHYL-5-(N-(4-PHENOXYPHENYL)-N-PHENYLETHYLSULFAMOYL)BENZOFURAN-2-CARBOXYLIC ACID] |  |  | 6.00 to 8.00 | 4.30 to 5.00

From US20250275958A1, “GPCR REGULATOR AND USE THEREOF” (BEIJING CHANGPING LABORATORY, priority 2022, published 2025)
